Measured values: patent publication US5731334A, “Method for treating cancer using taxoid onium salt prodrugs” (priority 1995, dated 1998)
Entries after “also recorded” stand apart in the source; their conditions may differ. Read-outs that look alike come from different tables or passages of the source.

Tests used:
[1] = tested on: HT-29 colon carcinoma cells; experiment: XTT dye binding cytotoxicity assay, HT-29; format: cell-based; conditions: Homo sapiens
Method: (§1) All cell lines described herein were obtained from the ATCC and maintained in media formulations as recommended by the supplier. The cell lines were tested for mycoplasma contamination prior to incubation at 37° C. in 5% carbon dioxide. Normal human dermal fibroblasts, peripheral blood lymphoblasts and mammary epithelial cells were obtained from Clonogenic Cor., San Diego, Calif. and were maintained under the above incubation conditions in special media provided by the supplier.
(§2) Antiproliferative activities of the onium salts were determined using the XTT dye binding assay. Cells were harvested with trypsin/EDTA (Irvine Scientific), washed, resuspended in the appropriate medium, and counted in a hemocytometer using Trypan Blue to determine viability. Then 10^4 cells/well were added to 96 well microtiter plates and incubated for 24 hours before addition of drug at concentrations in the range of 10^-4 to 10^-13 molar by direct addition from DMSO solutions. After 72 hours, XTT binding dye was added and incubation was continued for 4 hours. The inhibition of cell proliferation was quantified using a Molecular Devices Microplate Reader. The absorbance of XTT was measured at […]. The concentration of drug which inhibited growth of cells by 50% was calculated from duplicated determinations.

[2] = tested on: A-549 lung carcinoma cells; experiment: XTT dye binding cytotoxicity assay, A-549; format: cell-based; conditions: Homo sapiens
Method: as §1, §2

[3] = tested on: PC-3 prostate carcinoma cells; experiment: XTT dye binding cytotoxicity assay, PC-3; format: cell-based; conditions: Homo sapiens, 72 h
Method: as §1, §2

[4] = Comparative toxicities (lethality) in mice
[5] = tested on: UCLA-P3 lung carcinoma cells; experiment: XTT dye binding cytotoxicity assay, UCLA-P3; format: cell-based; conditions: Homo sapiens
Method: as §1, §2

[6] = tested on: U-2511 CNS cancer cells; experiment: XTT dye binding cytotoxicity assay, U-2511; format: cell-based; conditions: Homo sapiens, 72 h
Method: as §1, §2

[7] = tested on: human tumor xenografts; experiment: In vivo antitumor effect (human tumor xenografts in nude mice)
[8] = tested on: PC-3 prostate carcinoma tumor xenograft; experiment: PC-3 prostate tumor xenograft in nude mice
Method: (§3) Athymic nude mice were purchased from Harlan-Sprague-Dawley. The animals were housed in microisolated cases under positive air pressure and all manipulations and drug treatments were performed in a laminar flow cabinet. Tumor cells were grown under the above tissue culture conditions. Cell suspensions in RPMI medium were injected S./C. Treatment was started one day after inoculation by i.p. injection of 400 μl drug solutions. Tumors were measured 3 times weekly in two dimensions, using calipers and tumor volume as calculated using the formula (V=w^2 ×L×(3.142).
The tumor model was generated from an ATTC PC-3 prostate carcinoma cell line that was maintained under standard cell proliferation conditions, viz. 37° C., 5% carbon dioxide in sterile air. Each cohort was comprised of eight randomly chosen female athymic nude mice, for a total population size of twenty four. Hemocytometer counted cells, suspended in Hanks mediun (Gibco, Grand Island N.Y.) were implanted S.C. (10^6 cells in 0.4 mL per mouse). Solid tumor growth was measured on each third day. Equimolar amounts of the test compounds (1.0 mM, 400 μL) were injected i.p. on days 1, 3, 5, 7, 9, and 11 using the following media:
(.smallcircle.): Control, 5% dextrose in 5× distilled water (5 DW)
(Δ): Taxol (18.0 mg/kg of animal weight or approximately 1.260 mg/m^2) suspended in Cremaphor/D5W
Inferences about efficacy were drawn by ANOVA followed by protected t-test. […] Data shown as mean value with standard error.

[9] = In vivo elimination in BALB/C mice; conditions: 24 hours after injection
Method: C-2'-MPA-Taxol (1 mM in 0.9% saline solution, 400 μL) was injected along with tritiated taxol at 32000 cpm into normal BALB/C mice (4 mice each) housed in metabolic cages and the urine and feces were measured periodically in a scintillation counter using Achillea scintillation fluid.
The antitumor activity of the onium salts of taxol were assessed in nude mice bearing tumors of human A-549 lung adenocarcinomas, Ovcar-3 ovarian carcinoma, and PC-3 prostate carcinoma cells. […] FIG. 5 illustrates antiproliferation results for 2'-MPA-3-thiophene-taxol (4) and 2' MPA taxol (2) for the Ovcar-3 human tumor xenograft. […] FIG. 6, summarizes the results for a PC-3, prostate tumor model study. Taxol was compared with both the 2'- and 7-substituted oxonium salts. […] Tritiated taxol and 2' MPA-taxol were used in drug elimination experiments in normal BALB/C mice. In both groups of mice of four animals each, only 4-5% of the administered radioactivity was measured in the combined urine and feces 24 hours after injection.

[10] = cited from earlier work
[11] = tested on: tubulin; experiment: Tubulin polymerization-depolymerization (microtubule assembly-disassembly) assay; format: biochemical, calf; conditions: CaCl2, 10^-6 M drug, 37° C., in words
[12] = tested on: HL-60 promyelocytic leukemia cells; experiment: XTT dye binding cytotoxicity assay, HL-60; format: cell-based; conditions: Homo sapiens
Method: as §1, §2

[13] = tested on: SK-Mel-28 melanoma cells; experiment: XTT dye binding cytotoxicity assay, SK-Mel-28; format: cell-based; conditions: Homo sapiens
Method: as §1, §2

[14] = tested on: CHO Chinese hamster ovary cells; experiment: XTT dye binding cytotoxicity assay, CHO; format: cell-based; conditions: Cricetulus griseus, 72 h
Method: as §1, §2

[15] = tested on: Capan 1 pancreas cancer cells; experiment: XTT dye binding cytotoxicity assay, Capan 1; format: cell-based; conditions: Homo sapiens
Method: as §1, §2

[16] = Plasma stability and prodrug reversion (ethyl acetate extraction, HPLC)
[17] = tested on: Molt-4 T-cell leukemia cells; experiment: XTT dye binding cytotoxicity assay, Molt-4; format: cell-based; conditions: Homo sapiens
Method: as §1, §2

[18] = tested on: OVCAR-3 ovarian carcinoma cells; experiment: XTT dye binding cytotoxicity assay, OVCAR-3; format: cell-based; conditions: Homo sapiens
Method: as §1, §2

[19] = Toxicity and survival in vivo (tumor bearing nude mice); conditions: for Toxicity: Table II, in vivo; for % survival: at end of experiments
[20] = tested on: M-24 metastatic melanoma cells; experiment: XTT dye binding cytotoxicity assay, M-24; format: cell-based; conditions: Homo sapiens
Method: as §1, §2

[21] = tested on: SIHA squamous carcinoma cells; experiment: XTT dye binding cytotoxicity assay, SIHA; format: cell-based; conditions: Homo sapiens, 72 h
Method: as §1, §2

[22] = cited from earlier work; remark: listed apart in the source
[23] = tested on: BT-549 breast carcinoma cells; experiment: XTT dye binding cytotoxicity assay, BT-549; format: cell-based; conditions: Homo sapiens
Method: as §1, §2

[24] = tested on: HMEC mammary epithelial cells; experiment: XTT dye binding cytotoxicity assay, HMEC; format: cell-based; conditions: Homo sapiens, 72 h
Method: as §1, §2

[25] = tested on: RPMI-7666 blood lymphoblasts; experiment: XTT dye binding cytotoxicity assay, RPMI-7666; format: cell-based; conditions: Homo sapiens, 72 h
Method: as §1, §2

[26] = tested on: L-1210 leukemia cells; experiment: XTT dye binding cytotoxicity assay, L-1210; format: cell-based, mouse
Method: as §1, §2

[27] = tested on: SK-N-SH neuroblastoma cells; experiment: XTT dye binding cytotoxicity assay, SK-N-SH; format: cell-based; conditions: Homo sapiens, 72 h
Method: as §1, §2

[28] = tested on: 786-0 renal cell carcinoma cells; experiment: XTT dye binding cytotoxicity assay, 786-0; format: cell-based; conditions: Homo sapiens
Method: as §1, §2

[29] = cited from earlier work; remark: listed apart in the source
[30] = tested on: NHDF dermal fibroblast; experiment: XTT dye binding cytotoxicity assay, NHDF; format: cell-based; conditions: Homo sapiens, 72 h
Method: as §1, §2

[31] = tested on: intact Molt-4 cells; experiment: Competition binding of tritiated compounds to intact Molt-4 cells; parameters: species or system human; conditions: calculated from slopes of linear portions of curves in FIG. 3; read-out: binding constant
Method: The competition by nonradioactive taxol or c-2'-MPA-taxol for the binding of 1×10^-9 M tritiated compounds by intact Molt-4 cells is illustrated in FIG. 3. Tritiated taxol (Moravek Corp.) was treated with 2-fluoropyridiunium tosylate according to the method of Nicolaou et al. to yield the C-2'-MPT-^3 H-taxol. (Angew. Chem., Int. Ed. 1994: vol. 34, pp. 1583-1587.) Six well plates were incubated with 10^6 Molt-4 cells in 50 mM phosphate buffered saline (PBS) or PRPMI media to which 10^-9 M of the radiolabeled taxol or taxol onium salt was added together with increasing concentrations of nonradiolabeled compound. After 30 minutes, the cells were centrifuged, washed with PBS and 1% SDS was added. […] Alternatively, the cells may be lysed by sonication.

[32] = in vitro; conditions: human, plasma
[33] = tested on: A549 lung adenocarcinoma tumor xenograft; experiment: Human lung adenocarcinoma A549 xenograft in nude mice; conditions: 1.0 mM, 400 μL i.p. days 1, 3, 5, 7, 9, 11
Method: as §3
The tumor model was generated from A549 cell line, an ATTC that was maintained under standard cell proliferation conditions (37° C., 5% carbon dioxide in sterile air). Each cohort was comprised of six randomly chosen female athymic nude mice, for a total population size of twenty four mice. Hemocytometer counted cells, suspended in Hanks mediun (Gibco, Grand Island N.Y.) were implated S.C. (10^6 cells in 0.4 mL per mouse). Solid tumor growth was measured on each third day. Equimolar amounts of the test compounds (1.0 mM, 400 μL) were injected i.p. on days 1, 3, 5, 7, 9, and 11 using the following media:
(Δ): Control, saline in 5× distilled water (5 DW)
(.smallcircle.): Taxol (18.0 mg/kg of animal weight or approximately 1,260 mg/m^2) suspended in Cremaphor/D5W […]

[34] = tested on: tumor cell lines; experiment: Cytotoxicity, summary over tumor cell lines (XTT); format: cell-based, human and murine
Method: Antiproliferative activities of the onium salts were determined using the XTT dye binding assay. Cells were harvested with trypsin/EDTA (Irvine Scientific), washed, resuspended in the appropriate medium, and counted in a hemocytometer using Trypan Blue to determine viability. […] After 72 hours, XTT binding dye was added and incubation was continued for 4 hours. The inhibition of cell proliferation was quantified using a Molecular Devices Microplate Reader. […] The concentration of drug which inhibited growth of cells by 50% was calculated from duplicated determinations.

CC(=O)O[C@H]1C(=O)[C@@]2(C)[C@H]([C@H](OC(=O)c3ccccc3)[C@]3(O)C[C@H](OC(=O)[C@H](O)[C@@H](NC(=O)c4ccccc4)c4ccccc4)C(C)=C1C3(C)C)[C@]1(OC(C)=O)CO[C@@H]1C[C@@H]2O [Compound 1, reference compound]
IC50 ([1]; HT-29, 72 h): 1.16 nM | IC50 ([2]; A549, 72 h): 5.79 nM | IC50 [3]: 1.01 nM | 50% lethality, equivalent dose ([4]; mice, four times on alternating days, approximately equivalent dose): 1,120-1,260 mg/m^2 | LD50 ([4]; mouse, in vivo): 16 to 18 mg/kg | IC50 ([5]; UCLA P-3, 72 h): 0.66 nM | IC50 [6]: 15.6 nM | in vivo antitumor efficacy in words [7]: when taxol was administered at somewhat lower doses, its efficacy was significantly diminished | antitumor activity, PC-3 ([8]; 1.0 mM, 400 μL i.p., established tumors): regression of established tumors | mice surviving treatment, PC-3 ([8]; in vivo): 3 out of 8 mice | administered radioactivity in the combined urine and feces [9]: 4-5% | dose-limiting toxicity ([10]; pediatric patients, 24 hour i.v. infusion): neurotoxicity | dose at which dose-limiting toxicity occurred ([10]; pediatric patients, neurotoxicity): 420 mg/m^2 | recommended phase II dose ([10]; pediatric population): 350 mg/m^2 /d | inhibition of calcium chloride induced depolymerization of microtubules ([11]; listed as taxol): essentially complete inhibition of depolymerization; also recorded: suppressed by taxol | IC50 ([12]; HL-60, 72 h): 0.061 nM | IC50 ([13]; SK-MEL-28, 72 h): 524 nM | IC50 [14]: 615 nM | IC50 ([15]; CAPAN-1, 72 h): 0.967 nM | Plasma Stability t1/2 ([16]; human plasma, 37° C., Table II): stable | recovery ([16]; human, plasma): 95% | IC50 ([17]; MOLT-4, 72 h): 0.096 nM | IC50 ([18]; OVCAR-3, 72 h): 0.74 nM | Toxicity [19]: high | % survival [19]: 0-20% | in vivo tolerance / toxicity in words ([19]; nude mice): both visual toxicity and animal weight losses were observed | IC50 ([20]; M24, 72 h): 0.018 nM | IC50 ([21]; SiHa): 8.89 nM | dose limiting toxicity ([22]; 300 mg/m^2 /day): peripheral neuropathy | tolerated taxol dose ([22]; 24 hour i.v. infusion every 3 weeks, with G-CSF): 250 mg/m^2 | IC50 ([23]; BT-549, 72 h): 0.066 nM | IC50 [24]: 62 nM | IC50 [25]: 584 nM | IC50 ([26]; Mus musculus, L1210, 72 h): 3.24 nM | IC50 [27]: 2.38 nM | IC50 ([28]; 786-0, 72 h): 10.8 nM | solubility in aqueous media [29]: low solubility | IC50 [30]: 765 nM | Kd [31]: 5 nM

CC(=O)O[C@H]1C(=O)[C@@]2(C)[C@H]([C@H](OC(=O)c3ccsc3)[C@]3(O)C[C@H](OC(=O)[C@H](Oc4cccc[n+]4C)[C@@H](NC(=O)c4ccccc4)c4ccccc4)C(C)=C1C3(C)C)[C@]1(OC(C)=O)CO[C@@H]1C[C@@H]2O [Compound 4]
IC50 ([1]; HT-29, colon carcinoma, 72 h, read-out: IC50): 0.99 nM | IC50 ([2]; A549, A-549, lung carcinoma, 72 h, read-out: IC50): 2.35 nM | IC50 [3]: 1.15 nM | IC50 ([5]; UCLA P-3, UCLA-P3, lung carcinoma, 72 h, read-out: IC50): 1.88 nM | IC50 ([6]; U-2511, CNS cancer, read-out: IC50): 31.7 nM | inhibition of calcium chloride induced depolymerization of microtubules [11]: behaved in this assay similar to the C-2'-MPA isomer of taxol (2) | IC50 ([12]; HL-60, promyelocytic leukemia, 72 h, read-out: IC50): 0.12 nM | IC50 ([13]; SK-Mel-28, melanoma, 72 h, read-out: IC50): 110 nM | IC50 ([14]; CHO, Chinese hamster ovary (untransformed), read-out: IC50): 815 nM | IC50 ([15]; Capan 1, pancreas cancer, 72 h, read-out: IC50): 0.35 nM | IC50 ([17]; Molt-4, T-cell leukemia, 72 h, read-out: IC50): 0.066 nM | IC50 ([18]; OVCAR-3, ovarian carcinoma, 72 h, read-out: IC50): 0.86 nM | Toxicity [19]: low | % survival [19]: 100% | IC50 ([20]; M24, M-24, melanoma-metastatic, 72 h, read-out: IC50): 0.54 nM | IC50 ([21]; SIHA, squamous carcinoma, read-out: IC50): 7.55 nM | IC50 ([23]; BT-549, breast carcinoma, 72 h, read-out: IC50): 0.11 nM | IC50 ([24]; mammary epithelial cells (untransformed), read-out: IC50): 219 nM | half-life [32]: 14 min | recovery [32]: 23% | IC50 ([25]; RPMI-7666, blood lymphoblasts (untransformed), read-out: IC50): 408 nM | IC50 ([26]; L1210, L-1210, mouse leukemia, 72 h, read-out: IC50): 1.2 nM | IC50 ([27]; neuroblastoma, read-out: IC50): 4.18 nM | IC50 ([28]; 786-0, renal cell carcinoma, 72 h, read-out: IC50): 11.5 nM | IC50 ([30]; dermal fibroblast (untransformed), read-out: IC50): 655 nM

CC(=O)O[C@H]1C(=O)[C@@]2(C)[C@H]([C@H](OC(=O)c3ccccc3)[C@]3(O)C[C@H](OC(=O)[C@H](OC(=O)CS(=O)(=O)C(=O)O)[C@@H](NC(=O)c4ccccc4)c4ccccc4)C(C)=C1C3(C)C)[C@]1(OC(C)=O)CO[C@@H]1C[C@@H]2O [Compound 7]
tumor growth inhibition, A549 [33]: no significant growth inhibition | in vivo antitumor efficacy in words [7]: completely fails to exhibit any antitumor effects in vivo | cytotoxicity in words [34]: high cytotoxicity profile | half-life ([16]; human, plasma): 100 min | recovery ([16]; human, plasma): 34% | Toxicity [19]: low | % survival [19]: 75%
